The structures appear in SMILES notation.

The test system of one series is Typhlodromus pyri. The experiment in a line: LR50; higher = less toxic. As to conditions: not reported; mortality.
A further series relates to Folsomia candida. As to conditions: chronic/long-term; reproduction.
The subject of a further series is Oncorhynchus mykiss. As to conditions: for LC50: acute, mortality; for NOEC: chronic/long-term.
A further series deals with Daphnia magna. Conditions: chronic/long-term.
A further series relates to Tagia sp. Conditions: chronic/long-term; reproduction.
A further series relates to Apis mellifera. Conditions: acute, mortality.
The subject of another series is Hypoaspis aculeifer. As to conditions: chronic/long-term; reproduction.
A further series has as its system Rattus norvegicus. Conditions: for LD50: acute, oral, mortality.
In another series the test system is Mus musculus. Conditions: chronic; histopathology: neoplastic.
The mark [1] stands for this setting: duration: 21 days, reproduction.

Usually LC50 stands for the concentration lethal to half of the exposed cells or organisms. By NOAEL is commonly meant the highest tested level that showed no adverse finding. Compound `CC(CNC(=S)[S-])NC(=S)[S-].[Zn+2]` (centres undefined) [Propineb] came in with an LR50 in the series on Typhlodromus pyri of 5.6 g/ha. In addition, the NOEC in the series on Folsomia candida was 39.1 mg/kg; in the series on Oncorhynchus mykiss (duration: 28 days, other), > 0.6 mg/L; with Oncorhynchus mykiss (growth), 0.0823 mg/L; in the series with Daphnia magna (setting [1]) it was 0.015 mg/L; with Daphnia magna (duration: 35 days, other), 0.48 mg/L; in the series on Tagia sp., 38.7 mg/kg. Also, in the series with Hypoaspis aculeifer, the NOEC amounted to 39.1 mg/kg. Moreover, the LC50 in the series on Oncorhynchus mykiss (duration: 96 hours) was 0.329 mg/L. Besides, the LD50 is > 5000 mg/kg-day in the series on Coturnix japonica (acute, oral, mortality); > 100 µg/piece in the series on Apis mellifera (dermal); > 100 µg/piece with Apis mellifera (oral, unspecified); > 2000 mg/kg-day with Rattus norvegicus. Further, the no observed adverse effect level (NOAEL) was found to be 64.7 mg/kg-day in the series on Coturnix japonica (chronic); 2.5 mg/kg-day in the series with Rattus norvegicus (chronic, M, organ weight); 3 mg/kg-day in the series on Rattus norvegicus (developmental, development); 3 mg/kg-day in the series on Rattus norvegicus (reproduction developmental, body weight); 9.36 mg/kg-day in the series with Rattus norvegicus (subchronic, F, body weight).

With `CC1CNC(=O)N1` (centres undefined) [4-Methyl-2-imidazolidinone], the NOEC is 90 mg/kg in the series on Folsomia candida; 2 mg/L in the series on Oncorhynchus mykiss (duration: 63 days, growth); 100 mg/L in the series with Daphnia magna (setting [1]); ≥ 1000 mg/kg in the series on Tagia sp.; ≥ 100 mg/kg in the series on Hypoaspis aculeifer. Further, the LC50 in the series with Oncorhynchus mykiss (duration: 96 hours) is > 100 mg/L. For the same compound, the NOAEL in the series on Mus musculus was determined as 8 mg/kg-day.

`CC1CN2C(=S)SSC2=N1` (centres undefined) [6-Methyl-5,6-dihydroimidazo[2,1-C][1,2,4]dithiazole-3-thione] had an NOAEL in the series on Rattus norvegicus (short-term, duration: 28 days, neurology) of 0.466 mg/kg-day.

On to `CC1CNC(=S)N1` (centres undefined) [4-Methylimidazolidine-2-thione], for which the NOEC in the series on Folsomia candida was 9 mg/kg; in the series with Oncorhynchus mykiss (duration: 28 days, growth), 102 mg/L; in the series with Daphnia magna (setting [1]) it was 3.2 mg/L; in the series on Tagia sp., 178 mg/kg; in the series with Hypoaspis aculeifer it was ≥ 100 mg/kg. The LC50 in the series with Oncorhynchus mykiss was > 100 mg/L. The compound further showed an NOAEL in the series on Mus musculus of 0.16 mg/kg-day. This compound had an LD50 with Rattus norvegicus of 795 mg/kg-day.

The values above are taken from EPA's ToxValDB 9.5 (doi:10.2903/j.efsa.2016.4605).
